Assay: Stability of crystalline anhydrous docetaxel and docetaxel trihydrate in solvents (FIG. 2)
Assay type: physicochemical
Settings: for stability in co-water solvent: co-water solvent (ACN/water/acetic acid) vs non-water solvent
Description: FIG. 2 illustrates the stability of crystalline anhydrous docetaxel and docetaxel trihydrate.

stability compared with trihydrated form (1883-12-11, 1883-12-21, 2016-109-05) (in acetonitrile, FIG. 2)	stability compared with trihydrated form (see FIG. 2, solvent not stated at this place)	stability in co-water solvent	Structure (SMILES)	stability in acetonitrile compared with acetonitrile/water (9/1) (acetonitrile vs acetonitrile/water (9/1))	growth of 7-epi-docetaxel on addition of acetic acid (addition of acetic acid)	stability in co-water solvent (listed as Docetaxel)	generation of impurity 7-epi-docetaxel (co-water solvent vs non-water solvent)
more stable	more stable than trihydrated form		CC(=O)O[C@@]12CO[C@@H]1C[C@H](O)[C@@]1(C)C(=O)[C@H](O)C3=C(C)[C@@H](OC(=O)[C@H](O)[C@@H](NC(=O)OC(C)(C)C)c4ccccc4)C[C@@](O)([C@@H](OC(=O)c4ccccc4)[C@H]21)C3(C)C [anhydrous form of docetaxel, docetaxel]	more stable in acetonitrile than in acetonitrile/water (9/1)			
		less stable in co-water solvent	CC(=O)O[C@@]12CO[C@@H]1C[C@H](O)[C@@]1(C)C(=O)[C@H](O)C3=C(C)[C@@H](OC(=O)[C@H](O)[C@@H](NC(=O)OC(C)(C)C)c4ccccc4)C[C@@](O)([C@@H](OC(=O)c4ccccc4)[C@H]21)C3(C)C [docetaxel]		can be suppressed by the addition of acetic acid	more stable in non-water solvent than co-water solvent	generated more rapidly in co-water solvent than in non-water solvent

Reference: patent US8357811B2, “Crystalline forms of docetaxel and process for preparation thereof” (ScnioPharm Singapore PTE Ltd., priority 2006, dated 2013)
